Assay results as given in article PMC8304516, “A Fungal Defensin Targets the SARS−CoV−2 Spike Receptor−Binding Domain” (Journal of Fungi, 2021).
Like-named read-outs stand apart in the source and are kept apart here. Bridge positions count the residues as written; N and C are the ends. Peptide text beside a SMILES is read from it.

Columns and labels:
SARS−CoV−2 Spike RBD = SARS−CoV−2 Spike RBD (Severe acute respiratory syndrome coronavirus 2, UniProt P0DTC2); assay: biochemical; assay type: binding
[1] = target: SARS-CoV-2 Spike receptor-binding domain (residues N334-P527) (SARS-CoV-2 (isolate Wuhan-Hu-1)) (UniProt P0DTC2); assay: MST

| Molecule | Kd (SARS−CoV−2 Spike RBD; KD, SD) | further results |
| --- | --- | --- |
| CC[C@H](C)[C@@H]1NC(=O)[C@H](CO)NC(=O)[C@H](CC(C)C)NC(=O)[C@@H]2CSSC[C@@H](C(=O)NCC(=O)N[C@@H](CCCCN)C(=O)N[C@@H](CCC(N)=O)C(=O)O)NC(=O)[C@H]([C@@H](C)O)NC(=O)[C@@H]3CSSC[C@H](NC(=O)[C@H](CCC(=O)O)NC(=O)[C@H](CC(N)=O)NC(=O)[C@H](CCCNC(=N)N)NC(=O)[C@H](CC(N)=O)NC(=O)[C@H](Cc4ccccc4)NC(=O)[C@@H]4CCCN4C(=O)[C@@H](NC(=O)CNC(=O)[C@H](Cc4ccccc4)NC(=O)CN)CSSC[C@H](NC(=O)[C@H](Cc4ccccc4)NC(=O)CNC(=O)[C@H](Cc4ccccc4)NC(=O)[C@H](CCCCN)NC(=O)[C@H](CCCNC(=N)N)NC(=O)CNC1=O)C(=O)N[C@@H](C)C(=O)NCC(=O)N1CCC[C@H]1C(=O)N[C@@H](CC(C)C)C(=O)N[C@@H](CCCNC(=N)N)C(=O)N[C@@H](C)C(=O)N[C@@H]([C@@H](C)O)C(=O)N3)C(=O)N[C@@H](Cc1c[nH]cn1)C(=O)N[C@@H](C)C(=O)N[C@@H](Cc1c[nH]cn1)C(=O)N2 [E8R] (H-GFGCPFNRNECHAHCLSIGRKFGFCAGPLRATCTCGKQ-OH; disulfide 4-25, 11-33, 15-35) | 0.72 ± 0.22 µM |  |
| CC[C@H](C)[C@@H]1NC(=O)[C@H](CO)NC(=O)[C@H](CC(C)C)NC(=O)[C@@H]2CSSC[C@@H](C(=O)NCC(=O)N[C@@H](CCCCN)C(=O)N[C@@H](CCC(N)=O)C(=O)O)NC(=O)[C@H]([C@@H](C)O)NC(=O)[C@@H]3CSSC[C@H](NC(=O)[C@H](CCC(=O)O)NC(=O)[C@H](CC(N)=O)NC(=O)[C@H](CCC(=O)O)NC(=O)[C@H](CC(N)=O)NC(=O)[C@H](Cc4ccccc4)NC(=O)[C@@H]4CCCN4C(=O)[C@@H](NC(=O)CNC(=O)[C@H](Cc4ccccc4)NC(=O)CN)CSSC[C@H](NC(=O)[C@H](Cc4ccccc4)NC(=O)CNC(=O)[C@H](Cc4ccccc4)NC(=O)[C@H](CCCCN)NC(=O)[C@H](CCCNC(=N)N)NC(=O)CNC1=O)C(=O)N[C@@H](C)C(=O)NCC(=O)N1CCC[C@H]1C(=O)N[C@@H](CC(C)C)C(=O)N[C@@H](CCCNC(=N)N)C(=O)N[C@@H](C)C(=O)N[C@@H]([C@@H](C)O)C(=O)N3)C(=O)N[C@@H](Cc1c[nH]cn1)C(=O)N[C@@H](C)C(=O)N[C@@H](Cc1c[nH]cn1)C(=O)N2 [micasin] (H-GFGCPFNENECHAHCLSIGRKFGFCAGPLRATCTCGKQ-OH; disulfide 4-25, 11-33, 15-35) | 5.04 ± 0.96 µM |  |
| CC[C@H](C)[C@@H]1NC(=O)[C@H](CO)NC(=O)[C@H](CC(C)C)NC(=O)[C@@H]2CSSC[C@@H](C(=O)NCC(=O)N[C@@H](CCCCN)C(=O)N[C@@H](CCC(N)=O)C(=O)O)NC(=O)[C@H]([C@@H](C)O)NC(=O)[C@@H]3CSSC[C@H](NC(=O)[C@H](CCC(=O)O)NC(=O)[C@H](CC(N)=O)NC(=O)[C@H](CCCNC(=N)N)NC(=O)[C@H](CC(N)=O)NC(=O)[C@H](Cc4ccccc4)NC(=O)[C@@H]4CCCN4C(=O)[C@@H](NC(=O)CNC(=O)[C@H](Cc4ccccc4)NC(=O)CN)CSSC[C@H](NC(=O)[C@H](Cc4ccccc4)NC(=O)CNC(=O)[C@H](Cc4ccccc4)NC(=O)[C@H](CCCCN)NC(=O)[C@H](CCCNC(=N)N)NC(=O)CNC1=O)C(=O)N[C@@H](C)C(=O)NCC(=O)N1CCC[C@H]1C(=O)N[C@@H](CC(C)C)C(=O)N[C@@H](CCCNC(=N)N)C(=O)N[C@@H](C)C(=O)N[C@@H]([C@@H](C)O)C(=O)N3)C(=O)N[C@@H](Cc1c[nH]cn1)C(=O)N[C@@H](C)C(=O)N[C@@H](Cc1c[nH]cn1)C(=O)N2 [rE8R] (H-GFGCPFNRNECHAHCLSIGRKFGFCAGPLRATCTCGKQ-OH; disulfide 4-25, 11-33, 15-35) |  | Kd (SARS−CoV−2 Spike RBD; n = 2, read-out: KD): 1.92 µM |
| recombinant micasin E8K (peptide) |  | Kd [1]: 1.9 µM |
